Consider three compounds from paper PMC3634732, “Chemical Chaperones Exceed the Chaperone Effects of RIC-3 in Promoting Assembly of Functional α7 AChRs” (PLoS ONE, 2013).

Usually EC50 stands for the concentration at which the effect is half-maximal.

For one data set, the system named is Rat α7 AChRs. To be noted: cited from earlier work.
In data set [1] the target is T1, α7 AChRs on the surface of cells in the α7/RIC-3 line (Homo sapiens, UniProt P36544).
T1 construct: expressed in transfected cells
Nature of the data set: Upregulation of surface 125I αBgt binding in the α7/RIC-3 cell line. It counts as cell-based. To be noted: single chemical chaperone.

The subject of data set [2] is endogenous α7 AChRs in SH-SY5Y neuroblastoma cell line. Put plainly: Surface 125I αBgt binding in SH-SY5Y cells treated with chemical chaperones. The data set is classed as cell-based, human.
The test system of data set [3] is α7 AChRs in primary cultures of rat hippocampal neurons. Nature of the data set: 125I αBgt binding to rat hippocampal neuron cultures. To be noted: for Increase of α7 AChR expression: VPA for 5 days. The data set is classed as cell-based.
A further data set concerns α7/RIC-3 cell line. Put plainly: Tolerability of chemical chaperones in α7/RIC-3 culture. It counts as cell-based, human. The following applies: 6 mM, applied for longer periods than a few days.

Structures are written as SMILES.

T1 sequence (P36544 23-502): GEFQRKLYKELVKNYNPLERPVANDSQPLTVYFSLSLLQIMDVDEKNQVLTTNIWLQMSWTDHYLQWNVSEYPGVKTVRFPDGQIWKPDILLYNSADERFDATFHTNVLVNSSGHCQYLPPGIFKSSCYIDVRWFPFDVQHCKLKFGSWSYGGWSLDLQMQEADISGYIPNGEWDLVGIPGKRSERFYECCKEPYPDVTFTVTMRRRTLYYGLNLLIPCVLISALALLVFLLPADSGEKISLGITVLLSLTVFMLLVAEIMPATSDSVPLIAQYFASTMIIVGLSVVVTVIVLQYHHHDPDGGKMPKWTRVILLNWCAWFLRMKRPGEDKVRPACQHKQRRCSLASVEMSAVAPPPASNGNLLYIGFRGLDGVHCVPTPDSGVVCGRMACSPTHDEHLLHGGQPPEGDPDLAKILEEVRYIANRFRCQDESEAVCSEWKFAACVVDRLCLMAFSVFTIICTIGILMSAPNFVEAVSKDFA

Consider `CC(=O)OCC[N+](C)(C)C` [ACh], for which the EC50 in the data set with Rat α7 AChRs was 280 µM.
Take `O=C(O)CCCc1ccccc1` [PBA, 4-phenylbutyric acid]: in data set [1], the “Expression of α7 AChRs on the cell surface” value was “greatly increased”. In data set [2] (24 hours, 10 µM), the “Increase of 125I αBgt binding to the cell surface” value turned out to be 3 fold. The “Increase of α7 AChRs in the cell surface vs control” value in data set [2] (24 hours, 300 µM) is on record as 7.8 fold. In addition, the “Increase in expression of α7 AChRs on the cell surface, maximum” value in data set [2] (concentration-dependent) was “up to 7.8 fold”. The “Effect on 125I αBgt binding” value in data set [3] (rat hippocampal neurons (data not shown)) is listed as “ineffective”. Also, in the data set with α7/RIC-3 cell line, the Toxicity in culture result is on record as “toxic when applied for longer periods”.
With `CCCC(CCC)C(=O)O` [VPA, valproic acid], the “Expression of α7 AChRs on the cell surface” value in data set [1] is “greatly increased”. For the same compound, the “Increase of α7 expression” value in data set [2] (100 µM) was 7.3 fold. Besides, the “Increase of α7 AChR expression” value in data set [3] (at 20 days in culture) was 57%; in data set [3] (cultures only 1 week old), 68%. Also, the “Increase of 125I αBgt binding” value in data set [3] (long term treatment of primary cultures) was found to be 60%. In addition, the “Concentration giving maximum upregulation” value in data set [3] (rat hippocampal neurons) is 0.5 mM.
